Measurements from patent US4075194A, “Novel synthetic undecapeptide and clinical assay” (Yeda Research and Development Co., Ltd., priority 1976, dated 1978).
Ends that are not written are not given here.

B1: Pure CEA: carcinoembryonic antigen purified from colonic tumor tissue by perchloric acid extraction, chromatography and block electrophoresis (protein, UniProt P06731 35-685, looked up)
Cell adhesion molecule CEACAM5: KLTIESTPFNVAEGKEVLLLVHNLPQHLFGYSWYKGERVDGNRQIIGYVIGTQQATPGPAYSGREIIYPNASLLIQNIIQNDTGFYTLHVIKSDLVNEEATGQFRVYPELPKPSISSNNSKPVEDKDAVAFTCEPETQDATYLWWVNNQSLPVSPRLQLSNGNRTLTLFNVTRNDTASYKCETQNPVSARRSDSVILNVLYGPDAPTISPLNTSYRSGENLNLSCHAASNPPAQYSWFVNGTFQQSTQELFIPNITVNNSGSYTCQAHNSDTGLNRTTVTTITVYAEPPKPFITSNNSNPVEDEDAVALTCEPEIQNTTYLWWVNNQSLPVSPRLQLSNDNRTLTLLSVTRNDVGPYECGIQNELSVDHSDPVILNVLYGPDDPTISPSYTYYRPGVNLSLSCHAASNPPAQYSWLIDGNIQQHTQELFISNITEKNSGLYTCQANNSASGHSRTTVKTITVSAELPKPSISSNNSKPVEDKDAVAFTCEPEAQNTTYLWWVNGQSLPVSPRLQLSNGNRTLTLFNVTRNDARAYVCGIQNSVSANRSDPVTLDVLYGPDTPIISPPDSSYLSGANLNLSCHSASNPSPQYSWRINGIPQQHTQVLFIAKITPNNNGTYACFVSNLATGRNNSIVKSITVSASGTSPGLSA

Columns and labels:
anti-CEA(1-11)-BSA serum = assay: Inhibition of inactivation of CEA(1-11)-T4 by anti-CEA(1-11)-BSA serum; type: binding, rabbit; settings: for inhibition of the inactivation of CEA(1-11)-T4: in words
Experimental: Inactivation and Inhibition of Inactivation of CEA(1-11)-coated T4 Bacteriophage. The preparation of CEA(1-11)-coated T4 bacteriophage was carried out according to the procedure described by Haimovich et al., Biochim. Biophys. Acta 207 (1970) 115, making use of glutaraldehyde as crosslinking agent. The resulting modified bacteriophage preparation was tested for inactivation with anti-CEA(1-11)-BSA serum, by incubation for 21/2 hr at 37° in the presence of different dilutions of the antiserum, and monitoring the surviving phage by subsequent plating with bacteria.
In inhibition experiments the inhibitors were allowed to react at room temperature, overnight, with the amount of antiserum that would have caused approximately 90% inactivation of the bacteriophage conjugate, Haimovich et al. Biochim. Biophys. Acta 207 (1970) 125. The modified bacteriophage was then added to the mixture and the number of surviving phage was determined as described above. The percentage of inhibition was calculated from the extent of inactivation in the presence and in the absence of the inhibitor.

[1] = tested on: antisera agglutinating CEA(1-11)-A--L-coated sheep erythrocytes; assay: Inhibition of passive hemagglutination; type: binding; settings: serum concentration twice that of the hemagglutination titer
Experimental: Hemagglutination and Inhibition of Hemagglutination. Sheep erythrocytes were treated with formalin, tanned, and coated with the CEA(1-11) peptide or with the conjugates (CEA(1-11)-A--L or CEA(1-11)-BSA, Herbert: Handbook Exp. Immun., Oxford (1964), 720, Blackwell, Sci. Pub.
Passive microhemagglutination tests, Kabat: Structural Concepts in Immun. and Immunochem. (1968), Holt, Reinhart and Winston, Inc., N.Y., were performed on disposable microtiter plates (Cooke Engineering Co., Alexandira, Va.) by 2-fold serial dilutions of antisera in phosphate-buffered saline (0.15 M NaCl-0.01 M sodium phosphate buffer, pH 7.0), containing 0.1% ovalbumin (twice crystallized, Schwarz/Mann). The plates were incubated at room temperature and read after 2 and 4 hr.
In inhibition experiments serial dilutions of the respective inhibitor were allowed to react for 30 min with the antisera (at the last dilution that had given positive agglutination) prior to the addition of the coated erythrocytes. Inhibition results were also read after 2 and 4 hr.

[2] = Immunization of rabbits, antibody production; type: in vivo, rabbit; settings: intradermal in complete Freund's adjuvant, in words
Experimental: Immunization Procedure. Antisera against the CEA(1-11) peptide were obtained by immunizing rabbits with CEA(1-11) as the free peptide and with the two conjugates CEA(1-11)-A--L and CEA(1-11)-BSA. The rabbits were immunized by multisite intradermal injections in complete Freund's adjuvant. Each rabbit received two injections of 4 mg at 2-week intervals and was subsequently bled weekly from the marginal vein, starting 1 week after the last injection.

Row | Molecule | inhibition of the inactivation of CEA(1-11)-T4 (anti-CEA(1-11)-BSA serum) | Inhibition (%) (anti-CEA(1-11)-BSA serum; inhibitor concentration 0.001 μg/ml) | Inhibition (%) (anti-CEA(1-11)-BSA serum; inhibitor concentration 0.0033 μg/ml) | Inhibition (%) (anti-CEA(1-11)-BSA serum; inhibitor concentration 0.01 μg/ml) | Inhibition (%) (anti-CEA(1-11)-BSA serum; inhibitor concentration 0.033 μg/ml) | Inhibition (%) (anti-CEA(1-11)-BSA serum; inhibitor concentration 0.1 μg/ml) | Inhibition (%) (anti-CEA(1-11)-BSA serum; inhibitor concentration 0.33 μg/ml) | Inhibition (%) (anti-CEA(1-11)-BSA serum; inhibitor concentration 1 μg/ml) | Inhibition (%) (anti-CEA(1-11)-BSA serum; inhibitor concentration 3 μg/ml) | lowest concentration of inhibitor that still prevents agglutination ([1]; antiserum against CEA(1-11)-A--L) | lowest concentration of inhibitor that still prevents agglutination ([1]; antiserum against CEA(1-11)-BSA) | lowest concentration of inhibitor that still prevents agglutination ([1]; antiserum against Crude CEA) | lowest concentration of inhibitor that still prevents agglutination ([1]; antiserum against Pure CEA) | antibody production on immunization [2]
1 | LNFPTSEITLK [CEA(1-11), synthetic undecapeptide corresponding to the first eleven NH2-terminal residues of CEA, with leucine replacing valine in the 11-position] | could be inhibited | 0% | 38% | 64% | 82% | 92% | 100% | 98% | 100% | 1 µg/mL | 10 µg/mL | 100 µg/mL | 1 µg/mL | antisera of low titer
2 | B1 | No inhibition |  |  |  |  |  |  |  |  |  |  |  |  | 
